Laboratory results taken from patent US9890166B2, “Imidazopyrrolidine derivatives and their use in the treatment of disease” (NOVARTIS AG, priority 2013, dated 2018).
pIC50: −log10 of the molar value.

How the values were obtained:
BRD4 (His-Brd4(44-477)) = BRD4 (His-Brd4(44-477)) (Homo sapiens (Human), UniProt O60885); assay: TR-FRET in-vitro binding assay for BRD4; details: single determination or n ≧ 2 independent determinations, read-out: Biochemical IC50 BRD4
Description: (§1) TR-FRET In-Vitro Binding Assays for BRD2, BRD3, and BRD4:
(§2) All assays were performed in 384 well microtiter plates. Each assay plate contained 8-point serial dilutions for 40 test compounds, plus 16 high- and 16 low controls. Liquid handling and incubation steps were done on an Innovadyne Nanodrop Express equipped with a robotic arm (Thermo CatX, Perkin Elmer/Caliper Twister II) and an incubator (Liconic STX40, Thermo Cytomat 2C450). The assay plates were prepared by addition of 50 nl per well of compound solution in 90% DMSO HummingBird nanodispenser (Zinsser Analytic). […] Reactions were incubated at 30° C. for 35 minutes. […] After 35 minutes incubation at 30° C., plates were measured in a Perkin Elmer EnVision multilabel reader.
(§3) Preparation of Compound Dilutions
(§4) Test compounds were dissolved in DMSO (10 mM) and transferred into 1.4 mL flat bottom or V-shaped Matrix tubes carrying a unique 2D matrix. The stock solutions were stored at […] if not used immediately. For the test procedure the vials were defrosted and identified by a scanner whereby a working sheet was generated that guided the subsequent working steps.
(§5) Compound dilutions were made in 96 well plates. This format enabled the assay of maximally 40 individual test compounds at 8 concentrations (single points) including 4 reference compounds, if desired (known BET inhibitors from the prior art, for this and other assays of the type disclosed herein). The dilution protocol included the production of “pre-dilution plates”, “master plates” and “assay plates”.
(§6) Pre-Dilution Plates: 96 polypropylene well plates were used as pre-dilution plates. A total of 4 pre-dilution plates were prepared including 10 test compounds each on the plate positions A1-A10, one standard compound at A11 and one DMSO control at A12. All dilution steps were done on a HamiltonSTAR robot.
(§7) These plates were used directly for the assay which was performed in a total volume of 13.55 μL.

BRD2 (His-Brd2(60-472)) = BRD2 (His-Brd2(60-472)) (Homo sapiens (Human), UniProt P25440); assay: TR-FRET in-vitro binding assay for BRD2; details: single determination or n ≧ 2 independent determinations, read-out: Biochemical IC50 BRD2
Chain of BRD2 (His-Brd2(60-472)) (P25440 60-472): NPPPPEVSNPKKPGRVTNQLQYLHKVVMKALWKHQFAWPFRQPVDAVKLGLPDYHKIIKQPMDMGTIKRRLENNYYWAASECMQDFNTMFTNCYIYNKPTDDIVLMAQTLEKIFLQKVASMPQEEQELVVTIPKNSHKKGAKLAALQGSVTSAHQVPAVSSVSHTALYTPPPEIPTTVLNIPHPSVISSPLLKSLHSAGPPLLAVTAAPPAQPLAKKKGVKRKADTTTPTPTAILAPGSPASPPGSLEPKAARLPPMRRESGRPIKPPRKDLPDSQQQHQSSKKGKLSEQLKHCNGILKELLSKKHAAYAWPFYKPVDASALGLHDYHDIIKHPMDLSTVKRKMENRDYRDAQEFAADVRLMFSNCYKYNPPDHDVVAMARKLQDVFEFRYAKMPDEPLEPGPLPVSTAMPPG
Description: as §1, §2, §3, §4, §5, §6, §7

BRD3 (His-Brd3(20-477)) = BRD3 (His-Brd3(20-477)) (Homo sapiens (Human), UniProt Q15059); assay: TR-FRET in-vitro binding assay for BRD3; details: single determination or n ≧ 2 independent determinations, read-out: Biochemical IC50 BRD3
Chain of BRD3 (His-Brd3(20-477)) (Q15059 20-477): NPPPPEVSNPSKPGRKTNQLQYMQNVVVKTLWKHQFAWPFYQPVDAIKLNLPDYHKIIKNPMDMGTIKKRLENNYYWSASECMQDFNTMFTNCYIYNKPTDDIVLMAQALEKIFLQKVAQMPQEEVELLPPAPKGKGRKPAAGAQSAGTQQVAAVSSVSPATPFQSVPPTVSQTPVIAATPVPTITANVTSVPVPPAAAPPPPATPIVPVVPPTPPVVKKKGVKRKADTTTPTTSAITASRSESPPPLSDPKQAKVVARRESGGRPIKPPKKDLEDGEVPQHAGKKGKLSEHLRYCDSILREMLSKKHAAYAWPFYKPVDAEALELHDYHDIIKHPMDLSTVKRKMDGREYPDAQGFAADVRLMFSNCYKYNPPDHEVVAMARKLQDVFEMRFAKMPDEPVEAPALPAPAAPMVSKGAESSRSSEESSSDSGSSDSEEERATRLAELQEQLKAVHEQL
Description: as §1, §2, §3, §4, §5, §6, §7

THP-1 cells = assay: Cell growth inhibition assay (CellTiter-Glo), THP-1; details: for GI50: Homo sapiens, THP-1, read-out: THP-1 GI50; for THP-1 TGI: THP-1 cells, total growth inhibition, CellTiter-Glo;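 as to all read-outs here: viability read as cellular ATP luminescence after 4 days, 3-fold dilution series from 10 µM, DMSO vehicle-treated cells taken as 100%, cell-free medium wells as −100%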
K-562 cells = assay: Cell growth inhibition assay (CellTiter-Glo), K-562; details: for GI50: Homo sapiens, K562, read-out: K-562 GI50; for K-562 TGI: K-562 cells, total growth inhibition, CellTiter-Glo;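 as to all read-outs here: cellular ATP measured by luminescence after 4 days of exposure, 3-fold dilution series from 10 µM, DMSO vehicle-treated cells define 100%, cell-free medium wells −100%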
MV-4-11 cells = assay: Cell growth inhibition assay (CellTiter-Glo), MV-4-11; details: for GI50: Homo sapiens, MV4-11, read-out: MV-4-11 GI50; for MV-4-11 TGI: MV-4-11 cells, total growth inhibition, CellTiter-Glo;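 as to all read-outs here: cellular ATP luminescence after 4 days, 3-fold dilution series from 10 µM top dose, vehicle (0.1% DMSO) set to 100%, cell-free medium set to −100%, day 0 corrected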
[1] = biological target: CREBBP bromodomain (His-CREBBP(1081-1197)) (Homo sapiens (Human), UniProt Q92793); assay: AlphaScreen in-vitro binding assay for CREBBP; details: single determination or n ≧ 2 independent determinations, read-out: Biochemical IC50 CREBBP
Chain of CREBBP bromodomain (His-CREBBP(1081-1197)) (Q92793 1081-1197): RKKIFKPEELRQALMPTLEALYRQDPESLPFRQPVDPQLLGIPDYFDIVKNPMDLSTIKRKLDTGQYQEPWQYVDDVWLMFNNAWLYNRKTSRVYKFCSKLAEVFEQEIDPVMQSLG
Description: AlphaScreen In-Vitro Binding Assay for CREBBP
In order to assess bromodomain selectivity, we set up a binding assay using the bromodomain encoded by the CREBBP gene. […] Reactions were incubated at 30° C. for 35 minutes. Subsequently 4.5 μl per well detection mix (50 mM HEPES, pH 7.5, 0.005% Tween20, 0.02% BSA, 150 mM NaCl, 45 μg/ml Ni-chelate acceptor beads, 45 μg/mIstreptavidin-donor beads) (Perkin Elmer)) were added. After 60 minutes incubation at room temperature, plates were measured in a Perkin Elmer EnVision multilabel reader. IC50 values were determined from percent inhibition values at different compound concentrations by non-linear regression analysis.
as §3, §4, §5, §6, §7

pIC50 (BRD4 (His-Brd4(44-477))) | pIC50 (BRD2 (His-Brd2(60-472))) | pIC50 (BRD3 (His-Brd3(20-477))) | GI50 (THP-1 cells) [µM] | GI50 (K-562 cells) [µM] | GI50 (MV-4-11 cells) [µM] | pIC50 [1] | SMILES | THP-1 TGI (THP-1 cells) [µM] | K-562 TGI (K-562 cells) [µM] | MV-4-11 TGI (MV-4-11 cells) [µM]
7.72 | – | 7.74 | 0.004 | 0.0479 | 0.00412 | 4.83 | Cc1cc(N2C(=O)c3nc(C4=CCOCC4)[nH]c3[C@H]2c2ccc(Cl)cc2)nc2c1nnn2C [Example 165, (R)-6-(4-chlorophenyl)-2-(3,6-dihydro-2H-pyran-4-yl)-5-(3,7-dimethyl-3H-[1,2,3]triazolo[4,5-b]pyridin-5-yl)-5,6-dihydropyrrolo[3,4-d]imidazol-4(1H)-one] | 0.01567 | >10 | 0.01274
7.89 | – | 7.92 | 0.00754 | 0.0846 | 0.00543 | 4.48 | COc1ncccc1-c1nc2c([nH]1)[C@@H](c1ccc(Cl)cc1)N(c1cc(C)c3nnn(C)c3n1)C2=O [Example 166, (R)-6-(4-chlorophenyl)-5-(3,7-dimethyl-3H-[1,2,3]triazolo[4,5-b]pyridin-5-yl)-2-(2-methoxypyridin-3-yl)-5,6-dihydropyrrolo[3,4-d]imidazol-4(1H)-one] | 0.01128 | >10 | 0.00815
7.39 | – | 7.24 | 0.0911 | 0.33 | 0.0714 | 5.65 | Cc1cc(N2C(=O)c3nc(C4=CCOCC4)[nH]c3C2c2ccc(Cl)cc2)cn2c(C)nnc12 (stereo not drawn) [Example 116, 6-(4-chlorophenyl)-2-(3,6-dihydro-2H-pyran-4-yl)-5-(3,8-dimethyl-[1,2,4]triazolo[4,3-a]pyridin-6-yl)-5,6-dihydropyrrolo[3,4-d]imidazol-4(1H)-one] | 0.166 | >10 | 0.1175
7.89 | – | 7.77 | 0.00628 | 0.0196 | 0.00522 | 6.01 | Cc1cc(N2C(=O)c3nc(C4CCOC4)n(C(C)C)c3[C@H]2c2ccc(Cl)cc2)cc2c1nnn2C (stereo partly drawn) [Example 172, (6R)-6-(4-chlorophenyl)-5-(1,4-dimethyl-1H-benzo[d][1,2,3]triazol-6-yl)-1-isopropyl-2-(tetrahydrofuran-3-yl)-5,6-dihydropyrrolo[3,4-d]imidazol-4(1H)-one] | 0.01226 | >10 | 0.01033
7.89 | – | 7.80 | 0.0158 | 0.0533 | 0.0155 | < 4.43 | COc1ncccc1-c1nc2c([nH]1)C(c1ccc(Cl)cc1)N(c1cc(C)c3nnn(C)c3n1)C2=O (stereo not drawn) [Example 163, 6-(4-chlorophenyl)-5-(3,7-dimethyl-3H-[1,2,3]triazolo[4,5-b]pyridin-5-yl)-2-(2-methoxypyridin-3-yl)-5,6-dihydropyrrolo[3,4-d]imidazol-4(1H)-one] | 0.02575 | >10 | 0.02905

Further lines, the compound ahead of its results:

SMILES | pIC50 (BRD4 (His-Brd4(44-477))) | pIC50 (BRD2 (His-Brd2(60-472))) | pIC50 (BRD3 (His-Brd3(20-477))) | GI50 (THP-1 cells) [µM] | GI50 (K-562 cells) [µM] | GI50 (MV-4-11 cells) [µM] | pIC50 [1] | THP-1 TGI (THP-1 cells) [µM] | K-562 TGI (K-562 cells) [µM] | MV-4-11 TGI (MV-4-11 cells) [µM]
Cc1cc(N2C(=O)c3nc(C4CCCC4)n(C(C)C)c3C2c2ccc(Cl)cc2)cn(C)c1=O (stereo not drawn) [Example 31, 6-(4-chlorophenyl)-2-cyclopentyl-5-(1,5-dimethyl-6-oxo-1,6-dihydropyridin-3-yl)-1-isopropyl-5,6-dihydropyrrolo[3,4-d]imidazol-4(1H)-one] | 7.33 | 7.35 | 7.43 | 0.0794 | 0.349 | 0.0364 | – | 0.125 | >10 | 0.0599
Cc1nc(C)c(-c2nc3c(n2C(C)C)C(c2ccc(Cl)cc2)N(c2cc(C)c(=O)n(C)c2)C3=O)s1 (stereo not drawn) [Example 25, 6-(4-chlorophenyl)-5-(1,5-dimethyl-6-oxo-1,6-dihydropyridin-3-yl)-2-(2,4-dimethylthiazol-5-yl)-1-isopropyl-5,6-dihydropyrrolo[3,4-d]imidazol-4(1H)-one] | 7.00 | 6.92 | 7.10 | 0.118 | 0.528 | 0.0657 | – | 0.209 | >10 | 0.0904
Cc1cc(N2C(=O)c3nc(-c4cccnc4F)n(C)c3C2c2ccc(Cl)cc2)cn(C)c1=O (stereo not drawn) [Example 32, 6-(4-chlorophenyl)-5-(1,5-dimethyl-6-oxo-1,6-dihydropyridin-3-yl)-2-(2-fluoropyridin-3-yl)-1-methyl-5,6-dihydropyrrolo[3,4-d]imidazol-4(1H)-one] | 6.77 | 6.74 | 6.89 | – | – | – | – | – | – | –
Cc1cc(N2C(=O)c3nc(-c4nccs4)n(C(C)C)c3C2c2ccc(Cl)cc2)cn(C)c1=O (stereo not drawn) [Example 23, 6-(4-chlorophenyl)-5-(1,5-dimethyl-6-oxo-1,6-dihydropyridin-3-yl)-1-isopropyl-2-(thiazol-2-yl)-5,6-dihydropyrrolo[3,4-d]imidazol-4(1H)-one] | 7.28 | 7.26 | 7.17 | 0.158 | 0.381 | 0.0875 | – | 0.311 | >10 | 0.143
COc1ncccc1-c1nc2c(n1C(C)C)[C@@H](c1ccc(Cl)cc1)N(c1cc(C)c3nnn(C)c3c1)C2=O [Example 112, (R)-6-(4-chlorophenyl)-5-(1,4-dimethyl-1H-benzo[d][1,2,3]triazol-6-yl)-1-isopropyl-2-(2-methoxypyridin-3-yl)-5,6-dihydropyrrolo[3,4-d]imidazol-4(1H)-one] | > 7.96 | 7.89 | > 7.96 | 0.00479 | 0.0172 | 0.00172 | – | 0.00984 | >10 | 0.00461
Cc1cc(N2C(=O)c3nc(C4CCOCC4)n(C4COC4)c3C2c2ccc(Cl)cc2)cc2c1nnn2C (stereo not drawn) [Example 105, 6-(4-chlorophenyl)-5-(1,4-dimethyl-1H-benzo[d][1,2,3]triazol-6-yl)-1-(oxetan-3-yl)-2-(tetrahydro-2H-pyran-4-yl)-5,6-dihydropyrrolo[3,4-d]imidazol-4(1H)-one] | 7.89 | – | 7.77 | 0.0123 | 0.0902 | 0.0108 | 5.70 | 0.02785 | >10 | 0.02195
Cc1cc(N2C(=O)c3nc(C4=CCOCC4)n(C4COC4)c3C2c2ccc(Cl)cc2)cc2c1nnn2C (stereo not drawn) [Example 93, 6-(4-chlorophenyl)-2-(3,6-dihydro-2H-pyran-4-yl)-5-(1,4-dimethyl-1H-benzo[d][1,2,3]triazol-6-yl)-1-(oxetan-3-yl)-5,6-dihydropyrrolo[3,4-d]imidazol-4(1H)-one] | 7.67 | – | 7.47 | 0.0213 | 0.104 | 0.0159 | 5.57 | 0.06935 | >10 | 0.032
Cc1cc(N2C(=O)c3nc(C4CC4)n(C4COC4)c3C2c2ccc(Cl)cc2)cc2c1nnn2C (stereo not drawn) [Example 95, 6(4-chlorophenyl)-2-cyclopropyl-5-(1,4-dimethyl-1H-benzo[d][1,2,3]triazol-6-yl)-1-(oxetan-3-yl)-5,6-dihydropyrrolo[3,4-d]imidazol-4(1H)-one] | 7.58 | – | 7.54 | 0.017 | 0.0857 | 0.028 | 5.71 | 0.0524 | >10 | 0.042
